Data published in patent US20100047374A1, “COMPOSITION FOR PROTECTING MUSCLE DAMAGE” (priority 2007, published 2010).

What was measured:
IL-6 = assay: Muscle damage-protecting effect using myotube cell: IL-6 gene expression by quantitative real time PCR after H2O2 treatment; assay type: cell-based, mouse; conditions: C2C12 myotube cell, 10 μg/ml for 24 hours, then 1 mM H2O2 for 2 hours, relative to GAPDH, compared to hydrogen peroxide group, FIGS. 3 and 4
Method: (§1) In this evaluation system, the C2C12 myoblast cell line derived from a mouse was used. The cell line is preserved in RIKEN BIORESOURCE CENTER, Japan, and the cell line can be shared. The cell is differentiated from a mononuclear myoblast cell into a maltinuclear myotube cell by differentiation induction, to thereby have a muscle fiber-like form. The cell was seeded in a collagen I-coated 35-mm dish and cultured in DMEM (11965-092, manufactured by GIBCO)+10% FBS (hereinafter, may be referred to as a growth medium) at 37° C. under 5% CO2 until the culture had 90% confluence. […] The concentration of the purified total RNA was determined based on the measurement results of the absorbance (260 nm, 280 nm). […] A quantitative real time PCR was performed by using the obtained cDNA. In the quantitative real time PCR, qPCR super mix-UDG with ROX was used as a reaction reagent, as primers for IL-6 and CXCL-1, Mm00446190 (manufactured by AB Corporation) and Mm00433859 (manufactured by AB Corporation) were used, respectively, and as a primer for […] (hereinafter, may be referred to as GAPDH) which was used as an internal standard, Mm99999915 (manufactured by AB Corporation) was used. […]

CXCL-1 = assay: Muscle damage-protecting effect using myotube cell: CXCL-1 gene expression by quantitative real time PCR after H2O2 treatment; assay type: cell-based, mouse; conditions: C2C12 myotube cell, 10 μg/ml for 24 hours, then 1 mM H2O2 for 2 hours, relative to GAPDH, compared to hydrogen peroxide group, FIG. 4
Method: as §1

## CCCCCCCCCCCCCCC[C@@H](O)[C@@H](N)CO (single isomer, unassigned) [sphinganine]
IL-6
  gene expression of IL-6: effect of inhibiting
CXCL-1
  gene expression of CXCL-1: effect of inhibiting
